Measured values taken from patent US20120121540A1 (priority 2007, published 2012).

Test: HCV replicon assay (luciferase reporter, ET cell line)
Assay type: cell-based
Conditions: Hepatitis C virus, HCV replicon luciferase activity in ET cells
Method in brief: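 EC50 and, via WST-1 cytotoxicity, TC50 were fitted with a Hill-coefficient equation to % inhibition across 10 two-fold dilutions. Compounds at 0.1 nM-[…] with 0.5% DMSO were applied 24 h post-seeding to replicon-bearing ET cells (luc-ubi-neo/NS3-5B, adaptive mutations). Firefly luciferase signal was measured after 48-72 h.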

Row | SMILES | inhibition at 10 µM
1 | O=C(c1nc2c(C(F)(F)F)cc(-c3ccoc3)cn2c1Cl)N1CCN(c2cccnc2)CC1 [Compound 543, (3-Chloro-6-furan-3-yl-8-trifluoromethyl-imidazo[1,2-a]pyridin-2-yl)-(4-pyridin-3-yl-piperazin-1-yl)-methanone] | 91.2%
2 | FC(F)(F)c1cc(-c2ccco2)cn2c(Cl)c(-c3nc(Cc4ccccc4)no3)nc12 [Compound 656, 2-(3-Benzyl-[1,2,4]oxadiazol-5-yl)-3-chloro-6-furan-2-yl-8-trifluoromethyl-imidazo[1,2-a]pyridine] | 34.1%
3 | O=C(NCc1ccccn1)c1nc2c(C(F)(F)F)cc(-c3ccco3)cn2c1Cl [Compound 163, 3-Chloro-6-furan-2-yl-8-trifluoromethyl-imidazo[1,2-a]pyridine-2-carboxylic acid (pyridin-2-ylmethyl)-amide] | 95.4%
4 | CC(=O)N(c1ccccc1)C1CCN(C(=O)c2nc3c(C(F)(F)F)cc(-c4ccoc4)cn3c2Cl)C1 (stereo not drawn) [Compound 600, N-[1-(3-Chloro-6-furan-3-yl-8-trifluoromethyl-imidazo[1,2-a]pyridine-2-carbonyl)-pyrrolidin-3-yl]-N-phenyl-acetamide] | 76%
5 | O=C(NCc1cccs1)c1nc2c(C(F)(F)F)cc(-c3ccc(C(F)(F)F)cc3)cn2c1Cl [Compound 199, 3-Chloro-8-trifluoromethyl-6-(4-trifluoromethyl-phenyl)-imidazo[1,2-a]pyridine-2-carboxylic acid (thiophen-2-ylmethyl)-amide] | 41%
6 | O=C(NCc1cccs1)c1nc2c(C(F)(F)F)cc(-c3ccccc3)cn2c1Br [Compound 139, 3-Bromo-6-phenyl-8-trifluoromethyl-imidazo[1,2-a]pyridine-2-carboxylic Acid (thiophen-2-ylmethyl)-amide] | 97.9%
7 | O=C(O)Cc1c(C(=O)NCc2cccs2)nc2c(C(F)(F)F)cc(-c3ccoc3)cn12 [Compound 226, {6-Furan-3-yl-2-[(thiophen-2-ylmethyl)-carbamoyl]-8-trifluoromethyl-imidazo[1,2-a]pyridin-3-yl}-acetic Acid] | 98.8%
8 | O=C(c1nc2c(C(F)(F)F)cc(-c3ccoc3)cn2c1Cl)N1CC=C(c2ccccc2)C1 [Compound 259, (3-chloro-6-furan-3-yl-8-trifluoromethyl-imidazo[1,2-a]pyridin-2-yl)-(3-phenyl-2,5-dihydro-pyrrol-1-yl)-methanone] | 99.4%
9 | N#Cc1cc(-c2ccccc2)cn2c(Br)c(C(=O)NCc3cccs3)nc12 [Compound 362, 3-Bromo-8-cyano-6-phenyl-imidazo[1,2-a]pyridine-2-carboxylic Acid (thiophen-2-ylmethyl)amide] | 86.9%
10 | O=C(c1nc2c(C(F)(F)F)cc(-c3cn[nH]c3)cn2c1Cl)N1CC[C@H](c2ccccc2)C1 [Compound 466, [3-Chloro-6-(1H-pyrazol-4-yl)-8-trifluoromethyl-imidazo[1,2-a]pyridin-2-yl]-(3-(R)-phenyl-pyrrolidin-1-yl)-methanone] | 90.4%
11 | CCc1c(C(=O)NCc2cccs2)nc2c(C(F)(F)F)cc(-c3ccco3)cn12 [Compound 194, 3-Ethyl-6-furan-2-yl-8-trifluoromethyl-imidazo[1,2-a]pyridine-2-carboxylic acid (thiophen-2-ylmethyl)-amide] | 89.5%
12 | O=C(Cc1cn2cc(-c3ccoc3)cc(C(F)(F)F)c2n1)N1CCC(c2cccc(F)c2)C1 (stereo not drawn) [Compound 652, 1-[3-(3-fluorophenyl)pyrrolidin-1-yl]-2-[6-(furan-3-yl)-8-(trifluoromethyl)imidazo[1,2-a]pyridin-2-yl]ethanone] | 82.1%
13 | O=C(c1nc2c(C(F)(F)F)cc(-c3ccoc3)cn2c1Br)N1CCC(c2ccccc2F)C1 (stereo not drawn) [Compound 448] | 99.2%
14 | O=C(c1nc2c(C(F)(F)F)cc(-c3cn[nH]c3)cn2c1Cl)N1CC=C(c2cscn2)C1 [Compound 445, [3-Chloro-6-(1H-pyrazol-4-yl)-8-(trifluoromethyl)imidazol[1,2-a]pyridine-2-yl][3-(1,3-thiazol-4-yl)-2,5-dihydro-1H-pyrrol-1-yl]methanone] | 93.9%
15 | Cc1cscc1-c1cc(C(F)(F)F)c2nc(C(=O)NCc3cccs3)c(Cl)n2c1 [Compound 209, 3-Chloro-6-(4-methyl-thiophen-3-yl)-8-trifluoromethyl-imidazo[1,2-a]pyridine-2-carboxylic acid (thiophen-2-ylmethyl)-amide] | 83.4%
16 | N#Cc1ccc(F)cc1C1=CCN(C(=O)c2nc3c(C(F)(F)F)cc(-c4ccoc4)cn3c2Cl)CC1 [Compound 569, 2-[1-(3-Chloro-6-furan-3-yl-8-trifluoromethyl-imidazo[1,2-a]pyridine-2-carbonyl)-1,2,3,6-tetrahydro-pyridin-4-yl]-4-fluoro-benzonitrile] | 85.3%
17 | O=C(NCc1ccco1)c1cc2cc(-c3ccccc3)cc(I)n2n1 [Compound 124, 7-Iodo-5-phenyl-pyrazolo[1,5-a]pyridine-2-carboxylic Acid (furan-2-ylmethyl)-amide] | 54.3%

Row | SMILES | inhibition at 10 µM
18 | O=C(c1nc2c(C(F)(F)F)cc(-c3ccoc3)cn2c1-c1ccoc1)N1CCC(c2ccc(F)cc2)C1 (stereo not drawn) [Compound 254, (3,6-Di-furan-3-yl-8-trifluoromethyl-imidazo[1,2-a]pyridin-2-yl)-[3-(4-fluoro-phenyl)-pyrrolidin-1-yl]-methanone] | 46.9%
19 | O=C(NCc1cccs1)c1nc2c(C(F)(F)F)cc(-c3ccccc3)nn2c1Br [Compound 250, 3-Bromo-6-phenyl-8-trifluoromethyl-imidazo[1,2-b]pyridazine-2-carboxylic Acid(thiophen-2-ylmethyl)-amide] | 92%
20 | CCN(CC)C(=O)c1ccccc1C1=CCN(C(=O)c2nc3c(C(F)(F)F)cc(-c4ccoc4)cn3c2Cl)CC1 [Compound 560, 2-[1-(3-Chloro-6-furan-3-yl-8-trifluoromethyl-imidazo[1,2-a]pyridine-2-carbonyl)-1,2,3,6-tetrahydro-pyridin-4-yl]-N,N-diethyl-benzamide] | 80.9%
21 | O=C(c1nc2c(C(F)(F)F)cc(-c3cn[nH]c3)cn2c1Cl)N1CC=C(c2cccs2)C1 [Compound 443, [3-Chloro-6-(1H-pyrozol-4-yl)-8-(trifluoromethyl)imidazo[1,2-a]pyridine-2-yl][3-(thiophen-2-yl)-2,5-dihydro-1H-pyrrol-1-yl]methanone] | 99.3%
22 | O=C(NCCc1ccccc1)c1nc2c(C(F)(F)F)cc(-c3ccco3)cn2c1Cl [Compound 321, 3-Chloro-6-furan-2-yl-8-trifluoromethyl-imidazo[1,2-a]pyridine-2-carboxylic Acid phenethyl-amide] | 78.2%
23 | O=C(c1nc2c(C(F)(F)F)cc(-c3ccoc3)cn2c1Cl)N1CCCC1c1ccccn1 (stereo not drawn) [Compound 331, (3-Chloro-6-furan-3-yl-8-trifluoromethyl-imidazo[1,2-a]pyridin-2-yl)-(2-pyridin-2-yl-pyrrolidin-1-yl)-methanone] | 53.3%
24 | O=C(c1nc2c(C(F)(F)F)cc(-c3ccoc3)cn2c1Cl)N1CC=C(c2cncs2)CC1 [Compound 568] | 98.8%
25 | Cc1c(C(=O)NCc2cccs2)nn2c(C)cc(-c3ccccc3)cc12 [Compound 115, 3,7-dimethyl-5-phenyl-pyrazolo[1,5-a]pyridine-2-carboxylic Acid (thiophen-2-ylmethyl)-amide] | 55.3%
26 | O=C(c1nc2c(C(F)(F)F)cc(-c3ccoc3)cn2c1Cl)N1CCC(c2nccs2)C1 (stereo not drawn) [Compound 430, (3-Chloro-6-furan-3-yl-8-trifluoromethyl-imidazo[1,2-a]pyridin-2-yl)-(3-thiazol-2-yl-pyrrolidin-1-yl)-methanone] | 99.4%
27 | CN1CCN(C(=O)c2nc3c(C(F)(F)F)cc(-c4ccco4)cn3c2Cl)C(c2ccccc2)C1 (stereo not drawn) [Compound 320, (3-Chloro-6-furan-2-yl-8-trifluoromethyl-imidazo[1,2-a]pyridin-2-yl)-(4-methyl-2-phenyl-piperazin-1-yl)-methanone] | 0.6%
28 | O=C(c1nc2c(C(F)(F)F)cc(-c3ccoc3)cn2c1Cl)N1CC[C@H](c2ccccc2)C1 [Compound 261, (3-Chloro-6-furan-3-yl-8-trifluoromethyl-imidazo[1,2-a]pyridin-2-yl)-(3-(R)-phenyl-pyrrolidin-1-yl)-methanone] | 87.9%
29 | O=C(NCC1CCCCC1)c1nc2c(C(F)(F)F)cc(-c3ccco3)cn2c1Cl [Compound 170, 3-Chloro-6-furan-2-yl-8-trifluoromethyl-imidazo[1,2-a]pyridine-2-carboxylic acid cyclohexylmethyl-amide] | 58%
30 | O=C(NC(C(=O)NCCCN1CCOCC1)c1cccs1)c1nc2c(C(F)(F)F)cc(-c3ccco3)cn2c1Cl (stereo not drawn) [Compound 171, 3-Chloro-6-furan-2-yl-8-trifluoromethyl-imidazo[1,2-a]pyridine-2-carboxylic acid [(3-morpholin-4-yl-propylcarbamoyl)-thiophen-2-yl-methyl]-amide] | 99.4%
31 | O=C(c1nc2c(C(F)(F)F)cc(-c3ccoc3)cn2c1Cl)N1CC(NS(=O)(=O)Cc2ccccc2)C1 [Compound 493, N-[1-(3-Chloro-6-furan-3-yl-8-trifluoromethyl-imidazo[1,2-a]pyridine-2-carbonyl)-azetidin-3-yl]-C-phenyl-methanesulfonamide] | 91.4%
32 | O=C(c1nc2c(C(F)(F)F)cc(-c3ccoc3)cn2c1Cl)N1CC=C(c2cncnc2)CC1 [Compound 618, [3-chloro-6-(furan-3-yl)-8-(trifluoromethyl)imidazo[1,2-a]pyridin-2-yl][4-(pyrimidin-5-yl)-3,6-dihydropyridin-1(2H)-yl]methanone] | 95.9%
33 | O=C(c1nc2c(C(F)(F)F)cc(-c3ccoc3)cn2c1Cl)N1CCC(c2ccc(F)c(F)c2)C1 (stereo not drawn) [Compound 420, (3-Chloro-6-furan-3-yl-8-trifluoromethyl-imidazo[1,2-a]pyridine-2-yl)-[3-(3,4-difluoro-phenyl)-pyrrolidin-1-yl]-methanone] | 93.6%
